From article PMC12735951, “A Bioorthogonal TCO–Tetrazine-Based Pretargeted PET/NIRF Platform Enabling High-Contrast Tumor Imaging” (Pharmaceuticals, 2025)
Each block holds one molecule with its values, some of them ahead of it.

Assays:
[1] = In vitro stability in 50% fetal bovine serum (FBS); format: in vitro ADME
Protocol: (§1) ^68GaCl3 (5 mL, 20 mCi) and DOTA-Tz (50 μg) were mixed in a reaction vial. The pH was adjusted to 4.0–4.5 by adding 1 M sodium acetate, and the mixture was heated at 95 °C for 15 min without further purification. Radiochemical purity was confirmed by RP-HPLC. In vitro stability of ^68Ga-DOTA-Tz was assessed by incubating aliquots in 50% FBS or 50% PBS at 37 °C for 30 min, 1 h, 2 h, and 4 h. The partition coefficient (log p) was determined by mixing 1 mL of n-octanol with 1 mL of PBS containing the tracer, vortexing, and centrifuging at 3000 rpm for 5 min. Samples (0.1 mL) from both the organic and aqueous phases were withdrawn, and their radioactivity was measured using a γ-counter (PerkinElmer Wizard, Shelton, CT, USA).

[2] = In vitro stability in 50% PBS; format: physicochemical; settings: 37 °C
Protocol: as §1

[3] = Partition coefficient (log p), n-octanol/PBS; format: physicochemical
Protocol: as §1

HeLa tumors = test: Pretargeting biodistribution (γ-counter) of DZ-Lys-TCO and ^68Ga-DOTA-H-Tz; format: in vivo, mice; settings: DZ-Lys-TCO 48 h pretargeting interval
Protocol: To assess the in vivo biodistribution of the pretargeting system, female BALB/c nude mice bearing HeLa tumors (n = 3) were first injected intravenously with DZ-TCO. After 48 h, 0.74 MBq of ^68Ga-DOTA-H-Tz was administered via the tail vein. At 30, 60, and 120 min post-injection, mice were euthanized, and tissues including blood, tumor, liver, kidney, spleen, heart, lung, muscle, stomach, intestines, brain, and bone were excised, weighed, and counted using a γ-counter (Wizard2, PerkinElmer, Shelton, CT, USA). Radiotracer uptake was expressed as the percentage of injected dose per gram of tissue (%ID/g). Tumor-to-organ uptake ratios were calculated accordingly.

subcutaneous tumors = test: Pretargeted PET imaging with DZ-Lys-TCO and ^68Ga-DOTA-H-Tz at different intervals; format: in vivo, mice; settings: DZ-Lys-TCO pre-injected
Protocol: To evaluate in vivo tumor targeting and bioorthogonal reaction kinetics, female BALB/c nude mice bearing subcutaneous tumors were intravenously injected with […] of each DZ-TCO precursor in phosphate-buffered saline (PBS). At predefined intervals (24, 48, or 72 h post-injection), […] of ^68Ga-labeled tetrazine probe (^68Ga-DOTA-Me-Tz or ^68Ga-DOTA-H-Tz; 3.7 MBq in PBS) was administered via the tail vein. PET imaging was performed using the IRIS system (Inviscan, Paris, France) at 30 min, 1 h, and 2 h post-injection under 2% isoflurane anesthesia. Image reconstruction and quantitative analysis were conducted using Inveon Research Workplace and OsiriX MD software version 10.0.4. Regions of interest (ROIs) were manually defined over tumors and major organs, and radiotracer uptake was expressed as the percentage of the injected dose per gram of tissue (%ID/g).

HeLa and U87MG xenograft = test: In vivo NIR fluorescence imaging, results not split by tumor model (organs, tumor-to-background ratios, retention); design: species or system mice
Protocol: (§2) To evaluate the tumor-targeting characteristics of DZ-TCO derivatives, DZ-1-TCO, DZ-Lys-TCO, and DZ-Lys-PEG4-TCO were administered to HeLa and U87MG xenograft-bearing nude mice (100 μL of 50 μM, n = 3 per group). In vivo fluorescence imaging was conducted at 4, 24, 48, 72, and 96 h after TCO compound injection.
(§3) Female BALB/c nude mice (4–6 weeks old; 14–20 g), obtained from Beijing Vital River Laboratory Animal Technology Co., Ltd. (Beijing, China), were subcutaneously inoculated with 5 × 10^6 HeLa or U87MG cells suspended in 100 μL PBS into the right flank. Tumor growth was monitored every 2–3 days using digital calipers, and experiments were initiated when tumor volumes reached approximately 150–300 mm^3, calculated using the formula Volume = (length × width^2)/2.
To assess the tumor-targeting capability and clearance kinetics of DZ-TCO precursors, 100 µL of each compound ([…] in PBS) was administered intravenously via the tail vein. Whole-body fluorescence imaging was performed at predetermined time points ([…]) using the IVIS Spectrum imaging system (PerkinElmer, Shelton, CT, USA) (excitation/emission, 745/820 nm) with automatic subtraction of background fluorescence during the acquisition. Fluorescence signals were acquired under standardized exposure settings, and region-of-interest (ROI) analysis was conducted using Living Image software version 4.4 (PerkinElmer) to quantify fluorescence intensity in the tumor and major organs.

HeLa xenograft = test: In vivo NIR fluorescence imaging, HeLa xenograft-bearing nude mice
Protocol: as §2, §3
(§4) To assess the tumor-targeting capability and clearance kinetics of DZ-TCO precursors, 100 µL of each compound ([…] in PBS) was administered intravenously via the tail vein. Whole-body fluorescence imaging was performed at predetermined time points (4, 24, 48, 72, and 96 h post-injection) using the IVIS Spectrum imaging system (PerkinElmer, Shelton, CT, USA) (excitation/emission, 745/820 nm) with automatic subtraction of background fluorescence during the acquisition. Fluorescence signals were acquired under standardized exposure settings, and region-of-interest (ROI) analysis was conducted using Living Image software version 4.4 (PerkinElmer) to quantify fluorescence intensity in the tumor and major organs.

U87MG xenograft = test: In vivo NIR fluorescence imaging, U87MG xenograft-bearing nude mice
Protocol: as §2, §3, §4

radiochemical purity in FBS at 4 h ([1]; 50% FBS, 37 °C): 98.53 ± 0.58%
radiochemical stability after 4 h ([1]; PBS and serum): > 85%
radiochemical purity in PBS after 4 h [2]: 98.76 ± 0.52%
log p [3]: −3.57 ± 0.21
Blood uptake (HeLa tumors; 30 min): 2.96 ± 0.11 %ID/g
Bone uptake (HeLa tumors; 30 min): 0.64 ± 0.27 %ID/g
Brain uptake (HeLa tumors; 30 min): 0.37 ± 0.30 %ID/g
Heart uptake (HeLa tumors; 30 min): 1.34 ± 0.53 %ID/g
Intestine uptake (HeLa tumors; 30 min): 1.97 ± 0.38 %ID/g
Kidney uptake (HeLa tumors; 30 min): 10.71 ± 1.34 %ID/g
Lung uptake (HeLa tumors; 30 min): 2.38 ± 1.41 %ID/g
Muscle uptake (HeLa tumors; 30 min): 0.97 ± 0.21 %ID/g
Spleen uptake (HeLa tumors; 30 min): 1.03 ± 0.08 %ID/g
Stomach uptake (HeLa tumors; 30 min): 1.16 ± 0.13 %ID/g
T/B (tumor-to-blood ratio) (HeLa tumors; 30 min): 1.18 ± 0.55
T/K (tumor-to-kidney ratio) (HeLa tumors; 30 min): 0.32 ± 0.14
T/L (tumor-to-liver ratio) (HeLa tumors; 30 min): 1.18 ± 0.28
liver uptake (HeLa tumors; 30 min): 2.95 ± 1.04 %ID/g
tumor uptake (HeLa tumors; 30 min): 3.53 ± 1.76 %ID/g
Blood uptake (HeLa tumors; 60 min): 1.05 ± 0.29 %ID/g
Bone uptake (HeLa tumors; 60 min): 0.52 ± 0.20 %ID/g
Brain uptake (HeLa tumors; 60 min): 0.10 ± 0.03 %ID/g
Heart uptake (HeLa tumors; 60 min): 0.78 ± 0.58 %ID/g
Intestine uptake (HeLa tumors; 60 min): 0.59 ± 0.08 %ID/g
Kidney uptake (HeLa tumors; 60 min): 6.54 ± 1.95 %ID/g
Lung uptake (HeLa tumors; 60 min): 0.50 ± 0.18 %ID/g
Muscle uptake (HeLa tumors; 60 min): 0.38 ± 0.15 %ID/g
Spleen uptake (HeLa tumors; 60 min): 0.91 ± 0.70 %ID/g
Stomach uptake (HeLa tumors; 60 min): 0.83 ± 0.30 %ID/g
T/B (tumor-to-blood ratio) (HeLa tumors; 60 min): 1.63 ± 0.53
T/K (tumor-to-kidney ratio) (HeLa tumors; 60 min): 0.25 ± 0.05
T/L (tumor-to-liver ratio) (HeLa tumors; 60 min): 1.08 ± 0.27
T/M (tumor-to-muscle ratio) (HeLa tumors; 60 min): 5.11 ± 3.51
liver uptake (HeLa tumors; 60 min): 1.56 ± 0.49 %ID/g
tumor uptake (HeLa tumors; 60 min): 1.72 ± 0.87 %ID/g
Blood uptake (HeLa tumors; 120 min): 0.64 ± 0.18 %ID/g
Bone uptake (HeLa tumors; 120 min): 0.08 ± 0.03 %ID/g
Brain uptake (HeLa tumors; 120 min): 0.03 ± 0.01 %ID/g
Heart uptake (HeLa tumors; 120 min): 0.17 ± 0.03 %ID/g
Intestine uptake (HeLa tumors; 120 min): 0.11 ± 0.08 %ID/g
Kidney uptake (HeLa tumors; 120 min): 3.28 ± 1.00 %ID/g
Lung uptake (HeLa tumors; 120 min): 0.14 ± 0.02 %ID/g
Muscle uptake (HeLa tumors; 120 min): 0.07 ± 0.02 %ID/g
Spleen uptake (HeLa tumors; 120 min): 0.24 ± 0.06 %ID/g
Stomach uptake (HeLa tumors; 120 min): 0.10 ± 0.05 %ID/g
T/B (tumor-to-blood ratio) (HeLa tumors; 120 min): 1.39 ± 0.74
T/K (tumor-to-kidney ratio) (HeLa tumors; 120 min): 0.26 ± 0.10
T/L (tumor-to-liver ratio) (HeLa tumors; 120 min): 1.07 ± 0.05
T/M (tumor-to-muscle ratio) (HeLa tumors; 120 min): 10.92 ± 0.31
liver uptake (HeLa tumors; 120 min): 0.76 ± 0.23 %ID/g
tumor uptake (HeLa tumors; 120 min): 0.82 ± 0.28 %ID/g
Bone uptake, consistently (HeLa tumors; all time points): < 0.70 %ID/g
maximum T/M ratio (subcutaneous tumors; 24 h interval): 5.31 ± 0.48
liver uptake (subcutaneous tumors; 24 h interval, 30 min p.i.): 2.61 ± 0.53 %ID/g
tumor uptake (subcutaneous tumors; 24 h interval, 30 min p.i.): 2.64 ± 0.73 %ID/g
T/L ratio (subcutaneous tumors; 24 h interval, 60 min p.i.): 1.01 ± 0.08
liver uptake (subcutaneous tumors; 24 h interval, 60 min p.i.): 1.15 ± 0.16 %ID/g
tumor uptake (subcutaneous tumors; 24 h interval, 60 min p.i.): 1.18 ± 0.25 %ID/g
liver uptake (subcutaneous tumors; 24 h interval, 120 min p.i.): 0.91 ± 0.16 %ID/g
tumor uptake (subcutaneous tumors; 24 h interval, 120 min p.i.): 0.79 ± 0.14 %ID/g
T/L ratio (subcutaneous tumors; 48 h interval): 1.35 ± 0.26
T/M ratio (highest) (subcutaneous tumors; 48 h interval): 8.30 ± 3.39
tumor uptake (subcutaneous tumors; 48 h interval, 30 min p.i.): 3.24 ± 0.95 %ID/g
tumor uptake (subcutaneous tumors; 48 h interval, 120 min p.i.): 0.96 ± 0.29 %ID/g
maximum T/M ratio (subcutaneous tumors; 72 h interval): 5.84 ± 1.49
liver uptake (subcutaneous tumors; 72 h interval, 30 min p.i.): 2.32 ± 0.79 %ID/g
tumor uptake (subcutaneous tumors; 72 h interval, 30 min p.i.): 1.89 ± 0.57 %ID/g
T/L ratio (subcutaneous tumors; 72 h interval, 60 min p.i.): 0.98 ± 0.10
liver uptake (subcutaneous tumors; 72 h interval, 60 min p.i.): 1.40 ± 0.43 %ID/g
tumor uptake (subcutaneous tumors; 72 h interval, 60 min p.i.): 1.35 ± 0.31 %ID/g
liver uptake (subcutaneous tumors; 72 h interval, 120 min p.i.): 0.97 ± 0.05 %ID/g
tumor uptake (subcutaneous tumors; 72 h interval, 120 min p.i.): 0.91 ± 0.31 %ID/g
Compound: O=C([O-])CN1CCN(CC(=O)[O-])CCN(CC(=O)NCCCCNC(=O)Cc2ccc(-c3nncnn3)cc2)CCN(CC(=O)[O-])CC1.[68Ga+3] [^68Ga-DOTA-H-Tz]

tumor-to-background fluorescence ratio (HeLa and U87MG xenograft; 4 h): 737.00 ± 159.93
tumor-to-background fluorescence ratio (HeLa and U87MG xenograft; 24 h): 1303.33 ± 116.76
time of peak tumor fluorescence signal (HeLa and U87MG xenograft; post-injection): 24 h
tumor fluorescence signal remained detectable (time post-injection) (HeLa and U87MG xenograft; post-injection): 96 h
tumor fluorescence intensity (HeLa xenograft; 24 h post-injection): 1.20 × 10^10 p/s/cm^2/sr
Compound: CC1(C)C(=CC=C2CCCC(C=CC3=[N+](CCCCS(=O)(=O)[O-])c4ccccc4C3(C)C)=C2Cl)N(CCCCCC(=O)NCCCCC(N)C(=O)NCCOCCOCCOCCOCCNC(=O)OC2CCC=CCCC2)c2ccccc21 (centres unmarked) [DZ-Lys-PEG4-TCO]

tumor-to-background fluorescence ratio (HeLa and U87MG xenograft; 4 h): 368.67 ± 151.28
fluorescence signal intensity, kidneys (HeLa and U87MG xenograft; 48 h): 3.95 × 10^8 p/s/cm^2/sr
fluorescence signal intensity, liver (HeLa and U87MG xenograft; 48 h): 5.04 × 10^8 p/s/cm^2/sr
fluorescence signal intensity, lungs (HeLa and U87MG xenograft; 48 h): 2.02 × 10^8 p/s/cm^2/sr
fluorescence signal intensity, spleen (HeLa and U87MG xenograft; 48 h): 8.77 × 10^7 p/s/cm^2/sr
tumor-to-background fluorescence ratio (HeLa and U87MG xenograft; 48 h): 4746.67 ± 100.66
fluorescence signal intensity, liver (HeLa and U87MG xenograft; 96 h): 4.38 × 10^8 p/s/cm^2/sr
fluorescence in normal tissues (HeLa and U87MG xenograft; 168 h): nearly undetectable
tumor fluorescence signal remained detectable (time post-injection) (HeLa and U87MG xenograft; post-injection): up to 168 h
tumor fluorescence intensity (U87MG xenograft; 4 h post-injection): 5.23 × 10^9 p/s/cm^2/sr
tumor fluorescence intensity (U87MG xenograft; 24 h post-injection): 7.18 × 10^9 p/s/cm^2/sr
tumor fluorescence intensity (U87MG xenograft; 48 h post-injection): 4.30 × 10^9 p/s/cm^2/sr
tumor fluorescence intensity (HeLa xenograft; 4 h post-injection): 2.19 × 10^9 p/s/cm^2/sr
tumor fluorescence intensity (HeLa xenograft; 24 h post-injection): 7.06 × 10^9 p/s/cm^2/sr
tumor fluorescence intensity (HeLa xenograft; 48 h post-injection): 5.43 × 10^9 p/s/cm^2/sr
Compound: CC1(C)C(=CC=C2CCCC(C=CC3=[N+](CCCCS(=O)(=O)[O-])c4ccccc4C3(C)C)=C2Cl)N(CCCCCC(=O)NCCCCC(N)C(=O)NCCCNC(=O)OC2CCC=CCCC2)c2ccccc21 (centres unmarked) [DZ-Lys-TCO]
